This is an account of results in patent publication US20240174637A1, “DEGRADERS OF GRK2 AND USES THEREOF” (Sonata Therapeutics, Inc., priority 2021, published 2024).

Molecules are shown by their SMILES. Bounds are passed on as bounds.

In experiment [1] the target is T1, GRK2 (Homo sapiens, UniProt P25098).
T1 sequence (P25098 1-689): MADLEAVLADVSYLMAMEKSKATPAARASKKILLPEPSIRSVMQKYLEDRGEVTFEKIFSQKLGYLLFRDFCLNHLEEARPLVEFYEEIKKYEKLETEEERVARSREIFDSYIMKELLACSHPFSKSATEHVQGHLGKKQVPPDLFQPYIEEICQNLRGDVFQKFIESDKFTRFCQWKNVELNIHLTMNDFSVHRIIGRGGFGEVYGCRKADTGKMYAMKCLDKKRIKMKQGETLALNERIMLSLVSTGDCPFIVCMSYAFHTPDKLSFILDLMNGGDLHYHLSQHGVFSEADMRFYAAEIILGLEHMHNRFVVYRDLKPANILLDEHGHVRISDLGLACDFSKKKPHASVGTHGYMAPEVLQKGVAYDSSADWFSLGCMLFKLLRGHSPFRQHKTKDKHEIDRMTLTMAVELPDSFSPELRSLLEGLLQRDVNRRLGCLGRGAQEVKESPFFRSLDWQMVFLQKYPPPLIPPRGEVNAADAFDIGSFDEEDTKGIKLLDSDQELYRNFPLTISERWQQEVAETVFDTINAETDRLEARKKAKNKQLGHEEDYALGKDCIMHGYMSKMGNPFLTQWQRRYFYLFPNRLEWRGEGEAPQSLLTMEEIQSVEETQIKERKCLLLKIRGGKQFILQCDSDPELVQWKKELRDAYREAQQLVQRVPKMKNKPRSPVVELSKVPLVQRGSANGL
Nature of the experiment: GRK2 Degradation Assay and Western Blot in PAXF1657 cells. The settings on record: for inhibition at 0.3 µM / inhibition at 1 µM / inhibition at 3 µM / % GRK2 degradation at 0.1 uM in PAXF1657 EV (24 hrs) / % GRK2 degradation at 10 uM in PAXF1657 EV (24 hrs) / % GRK2 degradation at 0.03 uM in PAXF1657 EV (24 hrs): PAXF1657 EV, 24 hrs; for inhibition at 0.3 µM: read-out: % GRK2 degradation at 0.3 uM in PAXF1657 EV (24 hrs); for inhibition at 1 µM: read-out: % GRK2 degradation at 1 uM in PAXF1657 EV (24 hrs); for inhibition at 3 µM: read-out: % GRK2 degradation at 3 uM in PAXF1657 EV (24 hrs); for GRK2 degradation, dose dependence (FIGS. 1A-1D): 24-hour treatment in PAXF1657 cells. Format: cell-based. Also noted: endogenous in cells; host or cells: PAXF1657. In outline: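 GRK2 degradation judged by immunoblot: NP40 lysates separated by SDS-PAGE and probed for GRK2 and β-actin, with HRP/ECL detection. Lysates came from PAXF1657 cells exposed to 0–10 μM compound for 6–24 h after reaching 70% confluency.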

A further experiment concerns PAXF1657 KO Clone #4. The experiment in a line: 7-day cellular proliferation assay (CellTiter-Glo), PAXF1657 KO Clone #4. Format: cell-based. The settings on record: 168 h, 7-day, read-out: 7-day proliferation assay: IC50 GeoMean (uM) [Cell Line: PAXF1657 KO Clone #4]. In outline: (§1)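 Cells plated at 500 per well and attached overnight. Next, 10-point inhibitor series added (30 μM-0.0002 μM, 0.3% DMSO) and a day-0 viability plate read. Then, after 3 days, medium with fresh compound. Finally, viability after 4 more days via CellTiter-Glo.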

Experiment [2] addresses T1, GRK2. The experiment in a line: GRK2 Inhibition Assay (TR-FRET, Example 1). The class given is biochemical. The settings on record: TR-FRET, 7 μM ATP; read-out: Enzymatic GRK2 Assay: IC50 (nM) (Example 1). On the procedure: Assay: GRK2 enzyme (1 nM final concentration) was diluted in 25 mM HEPES, 10 mM MgCl2, 2 mM DTT, 0.01% Tween-20, and 1 mM EGTA. Then the GRK2 mixture was added into ProxiPlate-384 white plate and pre-incubated for 30 min with test compounds at room temperature. ATP (7 μM final concentration) and Ulight TopoIIα (50 nM final concentration) were added into the assay plate to initiate the reaction and the mixture was incubated at room temperature for 90 min. Then, Eu anti-TopoIIα (0.12 nM final concentration), BSA (0.01% final concentration), and EDTA (11 mM final concentration) in LANCE assay buffer were added into each well. After 60 min incubation time at room temperature, TR-FRET signal was measured by EnVision plate reader.

The next experiment deals with PAXF1657 EV. Nature of the experiment: 7-day cellular proliferation assay (CellTiter-Glo), PAXF1657 EV. The settings on record: 168 h, 7-day, read-out: 7-day proliferation assay: IC50 GeoMean (uM) [Cell Line: PAXF1657 EV]. The class given is cell-based. In outline: as §1
Background: ATP-based viability assays read luminescence as a measure of living cells.

With `C[C@@H](NC(=O)c1cccc(NCc2nnc(-c3ccncn3)n2C)c1)c1cccc(OCCCCCCOCCOCCOCCCCCC(=O)Nc2cccc3c2CN(C2CCC(=O)NC2=O)C3=O)c1` (stereo partly drawn) [Compound D57, N-((1R)-1-(3-((6-(2-(2-((6-((2-(2,6-dioxopiperidin-3-yl)-1-oxoisoindolin-4-yl)amino)-6-oxohexyl)oxy)ethoxy)ethoxy)hexyl)oxy)phenyl)ethyl)-3-(((4-methyl-5-(pyrimidin-4-yl)-4H-1,2,4-triazol-3-yl)methyl)amino)benzamide], at GRK2 [1], the inhibition at 0.3 µM came out at 70%, the inhibition at 1 µM was 82% and the inhibition at 3 µM came out at 85%. Moreover, the IC50 in the experiment on PAXF1657 KO Clone #4 was greater than 10 µM. At GRK2 [2], the IC50 is less than 100 nM. The IC50 with PAXF1657 EV is greater than 10 µM.
Regarding `Cn1c(CNc2cccc(C(=O)NCc3cccc(OCCCCCn4cc(CCCC(=O)Nc5cccc6c5CN(C5CCC(=O)NC5=O)C6=O)nn4)c3)c2)nnc1-c1ccncn1` (stereo not shown) [Compound D59], the inhibition at 0.3 µM at GRK2 [1] worked out at 33%. Further, the inhibition at 1 µM on GRK2 [1] is 18%. For the same compound, on GRK2 [1], the inhibition at 3 µM turned out to be 53%. For the same compound, the figures for the IC50 in the experiment with PAXF1657 KO Clone #4, at GRK2 [2] and in the experiment on PAXF1657 EV were greater than 10 µM, less than 100 nM and greater than 10 µM, respectively.
Regarding `Cn1c(CNc2cccc(C(=O)NCc3cccc(OCCCCCCn4cc(CCCC(=O)Nc5cccc6c5CN(C5CCC(=O)NC5=O)C6=O)nn4)c3)c2)nnc1-c1ccncn1` (stereo not shown) [Compound D63], on GRK2 [1], the inhibition at 0.3 µM is 34%, the inhibition at 1 µM came to 55% and the inhibition at 3 µM came out at 68%. In addition, in the experiment with PAXF1657 KO Clone #4, the IC50 is greater than 10 µM. Further, on GRK2 [2], the IC50 is less than 100 nM. Moreover, the IC50 in the experiment on PAXF1657 EV is greater than 10 µM.
Turning to `Cn1c(CNc2cccc(C(=O)NCc3cccc(OCCCCCOCCCOCC(=O)Nc4cccc5c4CN(C4CCC(=O)NC4=O)C5=O)c3)c2)nnc1-c1ccncn1` (stereo not shown) [Compound D64, N-(3-((5-(3-(2-((2-(2,6-dioxopiperidin-3-yl)-1-oxoisoindolin-4-yl)amino)-2-oxoethoxy)propoxy)pentyl)oxy)benzyl)-3-(((4-methyl-5-(pyrimidin-4-yl)-4H-1,2,4-triazol-3-yl)methyl)amino)benzamide], at GRK2 [1], the “% GRK2 degradation at 0.1 uM in PAXF1657 EV (24 hrs)” value (“% GRK2 degradation at 0.1 uM” below) is 26%, the inhibition at 0.3 µM was 62%, the inhibition at 1 µM came out at 79% and the inhibition at 3 µM is 83%. For the same compound, on GRK2 [1], the “% GRK2 degradation at 10 uM in PAXF1657 EV (24 hrs)” value (“% GRK2 degradation at 10 uM” below) is 77% and the “GRK2 degradation, dose dependence (FIGS. 1A-1D)” value (shortened to “GRK2 degradation … (FIGS. 1A-1D)”) is “Dose dependent”. Further, the IC50 in the experiment with PAXF1657 KO Clone #4 was greater than 10 µM. For the same compound, the IC50 on GRK2 [2] was less than 100 nM. Further, in the experiment on PAXF1657 EV, the IC50 was greater than 10 µM.
As for `Cn1c(CNc2cccc(C(=O)NCc3cc(OCCCCCCOCCOCCOCCCCCC(=O)Nc4cccc5c4CN(C4CCC(=O)NC4=O)C5=O)ccc3F)c2)nnc1-c1ccncn1` (stereo not shown) [Compound D66, N-(5-((6-(2-(2-((6-((2-(2,6-dioxopiperidin-3-yl)-1-oxoisoindolin-4-yl)amino)-6-oxohexyl)oxy)ethoxy)ethoxy)hexyl)oxy)-2-fluorobenzyl)-3-(((4-methyl-5-(pyrimidin-4-yl)-4H-1,2,4-triazol-3-yl)methyl)amino)benzamide], at GRK2 [1], the “% GRK2 degradation at 0.03 uM in PAXF1657 EV (24 hrs)” value is on record as 8%, the “% GRK2 degradation at 0.1 uM” value is on record as 8%, the inhibition at 0.3 µM is 40% and the inhibition at 1 µM came out at 55%. For the same compound, on GRK2 [1], the inhibition at 3 µM is 71%; the “% GRK2 degradation at 10 uM” value stood at 58%; the “GRK2 degradation … (FIGS. 1A-1D)” value is listed as “Dose dependent”. In the experiment with PAXF1657 KO Clone #4, the IC50 was greater than 10 µM. Besides, the IC50 on GRK2 [2] is less than 100 nM. Moreover, in the experiment with PAXF1657 EV, the IC50 is greater than 10 µM.
As to `CC(NC(=O)c1cccc(NCc2nnc(-c3ccncn3)n2C)c1)c1cccc(OCCCCCCOCCOCCOCCCCCC(=O)Nc2cccc3c2CN(C2CCC(=O)NC2=O)C3=O)c1` (stereo not shown) [Compound D67, N-(1-(3-((6-(2-(2-((6-((2-(2,6-dioxopiperidin-3-yl)-1-oxoisoindolin-4-yl)amino)-6-oxohexyl)oxy)ethoxy)ethoxy)hexyl)oxy)phenyl)ethyl)-3-(((4-methyl-5-(pyrimidin-4-yl)-4H-1,2,4-triazol-3-yl)methyl)amino)benzamide], on GRK2 [1], the “% GRK2 degradation at 0.03 uM in PAXF1657 EV (24 hrs)” value was found to be 38%, the “% GRK2 degradation at 0.1 uM” value was 60%, the inhibition at 0.3 µM amounted to 74% and the inhibition at 1 µM came to 87%. On GRK2 [1], the inhibition at 3 µM is 90%; the “% GRK2 degradation at 10 uM” value was determined as 83%; the “GRK2 degradation … (FIGS. 1A-1D)” value is given as “Dose dependent”. The IC50 in the experiment on PAXF1657 KO Clone #4 is greater than 10 µM. For the same compound, at GRK2 [2], the IC50 is less than 100 nM. The IC50 in the experiment on PAXF1657 EV fell in the range of 1 to 10 µM.
With `Cc1ncsc1-c1ccc(CNC(=O)[C@@H]2C[C@@H](O)CN2C(=O)[C@@H](NC(=O)CCCCCOCCOCCOCCCCCCOc2cccc([C@H](C)NC(=O)c3cccc(NCc4nnc(-c5ccncn5)n4C)c3)c2)C(C)(C)C)cc1` [Compound D78, (2S,4R)-1-((S)-2-(tert-butyl)-22-(3-((S)-1-(3-(((4-methyl-5-(pyrimidin-4-yl)-4H-1,2,4-triazol-3-yl)methyl)amino)benzamido)ethyl)phenoxy)-4-oxo-10,13,16-trioxa-3-azadocosan-1-oyl)-4-hydroxy-N-(4-(4-methylthiazol-5-yl)benzyl)pyrrolidine-2-carboxamide], the inhibition at 0.3 µM on GRK2 [1] was -12%. On GRK2 [1], the inhibition at 1 µM was -21%. Moreover, the inhibition at 3 µM at GRK2 [1] is -18%. Also, the IC50 in the experiment with PAXF1657 KO Clone #4 was 1 to 10 µM; on GRK2 [2] it was less than 100 nM; in the experiment with PAXF1657 EV, less than 1 µM.
In the case of `Cc1ncsc1-c1ccc(CNC(=O)[C@@H]2C[C@@H](O)CN2C(=O)[C@@H](NC(=O)CCCCCOCCOCCOCCCCCCOc2cccc([C@@H](C)NC(=O)c3cccc(NCc4nnc(-c5ccncn5)n4C)c3)c2)C(C)(C)C)cc1` [Compound D79, (2S,4R)-1-((S)-2-(tert-butyl)-22-(3-((R)-1-(3-(((4-methyl-5-(pyrimidin-4-yl)-4H-1,2,4-triazol-3-yl)methyl)amino)benzamido)ethyl)phenoxy)-4-oxo-10,13,16-trioxa-3-azadocosan-1-oyl)-4-hydroxy-N-(4-(4-methylthiazol-5-yl)benzyl)pyrrolidine-2-carboxamide], at GRK2 [1], the inhibition at 0.3 µM turned out to be 52%, the inhibition at 1 µM amounted to 54% and the inhibition at 3 µM was 8%. In addition, in the experiment on PAXF1657 KO Clone #4, the IC50 is greater than 10 µM. Also, the IC50 at GRK2 [2] was less than 100 nM. Moreover, in the experiment with PAXF1657 EV, the IC50 was less than 1 µM.
Consider `Cc1ncsc1-c1ccc(CNC(=O)[C@@H]2C[C@@H](O)CN2C(=O)[C@@H](NC(=O)CCCCc2cn(CCCCCOc3cccc(CNC(=O)c4cccc(NCc5nnc(-c6ccncn6)n5C)c4)c3)nn2)C(C)(C)C)cc1` [Compound D80], for which, at GRK2 [1], the inhibition at 0.3 µM worked out at 6%, the inhibition at 1 µM was found to be 0% and the inhibition at 3 µM came out at 23%. In addition, the IC50 with PAXF1657 KO Clone #4 was greater than 10 µM. Besides, the IC50 on GRK2 [2] was less than 100 nM. Moreover, the IC50 in the experiment with PAXF1657 EV was greater than 10 µM.
In the case of `Cc1ncsc1-c1ccc(CNC(=O)[C@@H]2C[C@@H](O)CN2C(=O)[C@@H](NC(=O)CCCc2cn(CCCCCCOc3cccc(CNC(=O)c4cccc(NCc5nnc(-c6ccncn6)n5C)c4)c3)nn2)C(C)(C)C)cc1` [Compound D86], the inhibition at 1 µM on GRK2 [1] stood at 16%. Moreover, the inhibition at 3 µM on GRK2 [1] is 24%. Also, the figures for the IC50 in the experiment on PAXF1657 KO Clone #4, at GRK2 [2] and with PAXF1657 EV were greater than 10 µM, less than 100 nM and greater than 10 µM, respectively.
